Where two headings read alike, the source gives them in different places.
Legend:
Format in all cases: biochemical
[1] = target: T1, CDK9/Cyclin T1 (Homo sapiens, UniProt P50750); assay: CDK9 Enzymatic Activity Assay (Lance Kinase Activity Assay, FRET); details: for CDK9: Selectivity of CDK7 inhibition over CDK9 inhibition [fold]: Table 5B, symbols per IC50 ranges of b615
T1 construct: purchased Invitrogen
Outline: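 TR-FRET detection of ULight-MBP substrate phosphorylation by CDK9/cyclin T1 using a Eu-anti-phospho-MBP antibody, in 50 mM HEPES pH 7.5, 10 mM MgCl2, 1 mM EGTA, 2 mM DTT, 0.01% Tween-20. Kinase reaction 1 h at room temperature, then EDTA detection buffer for 1 h before reading.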

[2] = target: T2, CDK2/CycA (Homo sapiens, UniProt P24941); assay: CDK2 Enzymatic Activity Assay (Lance Kinase Activity Assay, FRET); details: for CDK2 IC50 range class: Table 5B, symbols per IC50 ranges of b615
T2 construct: purchased Proqinase
Outline: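 Compounds serially diluted 1:3 over 8 steps, run with CDK2/CycA, ULight-MBP substrate and ATP in HEPES pH 7.5 buffer for 1 h at room temperature. LANCE TR-FRET detection with Eu-anti-phospho-MBP after EDTA stop; IC50 from sigmoidal dose-response curves.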

[3] = target: T3, CDK7/CycH/Mat1 (Homo sapiens, UniProt P50613); assay: CDK7 Enzymatic Activity Assay (Lance Kinase Activity Assay, FRET)
T3 construct: purchased Carna
Outline: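 TR-FRET (LANCE) kinase assay with ULight-MBP peptide substrate and Eu-labelled anti-phospho antibody; compounds in 8-point 1:3 series in HEPES 50 mM pH 7.5, MgCl2 10 mM, EGTA 1 mM, DTT 2 mM, 0.01% Tween-20.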

[4] = Table 5A, 25 μM ATP final, read-out: CDK7: IC50 [mM] for CDK7 inhibition (the above defined ranges apply)

T3 sequence (P50613 whole entry): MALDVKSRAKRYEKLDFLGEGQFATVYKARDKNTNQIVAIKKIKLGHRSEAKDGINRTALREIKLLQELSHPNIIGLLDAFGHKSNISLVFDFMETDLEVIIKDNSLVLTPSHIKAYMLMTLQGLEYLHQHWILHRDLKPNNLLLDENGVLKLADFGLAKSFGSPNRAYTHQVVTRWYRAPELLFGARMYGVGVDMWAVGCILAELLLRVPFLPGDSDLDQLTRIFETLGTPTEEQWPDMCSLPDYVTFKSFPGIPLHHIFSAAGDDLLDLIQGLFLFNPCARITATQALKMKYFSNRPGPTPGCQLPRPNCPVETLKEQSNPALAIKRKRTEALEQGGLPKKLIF
T3 sequence (P51946 whole entry partner): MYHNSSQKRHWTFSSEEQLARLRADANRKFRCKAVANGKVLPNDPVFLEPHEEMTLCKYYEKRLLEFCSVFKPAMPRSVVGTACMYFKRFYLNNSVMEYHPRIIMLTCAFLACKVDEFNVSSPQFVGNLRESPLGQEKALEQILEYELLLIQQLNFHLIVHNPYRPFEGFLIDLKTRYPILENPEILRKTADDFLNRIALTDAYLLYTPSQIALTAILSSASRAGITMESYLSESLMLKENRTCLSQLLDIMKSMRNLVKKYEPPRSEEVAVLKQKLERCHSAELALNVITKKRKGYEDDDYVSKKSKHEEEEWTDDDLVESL
T3 sequence (P51948 whole entry partner): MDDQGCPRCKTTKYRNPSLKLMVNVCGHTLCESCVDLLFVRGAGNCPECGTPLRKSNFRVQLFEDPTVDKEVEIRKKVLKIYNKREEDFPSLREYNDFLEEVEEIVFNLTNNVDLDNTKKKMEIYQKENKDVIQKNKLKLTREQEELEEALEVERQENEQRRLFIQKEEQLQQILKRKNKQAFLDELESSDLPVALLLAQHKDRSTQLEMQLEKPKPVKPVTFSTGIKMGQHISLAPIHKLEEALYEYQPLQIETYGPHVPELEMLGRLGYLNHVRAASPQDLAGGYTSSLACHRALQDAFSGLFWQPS
T1 sequence (P50750 whole entry): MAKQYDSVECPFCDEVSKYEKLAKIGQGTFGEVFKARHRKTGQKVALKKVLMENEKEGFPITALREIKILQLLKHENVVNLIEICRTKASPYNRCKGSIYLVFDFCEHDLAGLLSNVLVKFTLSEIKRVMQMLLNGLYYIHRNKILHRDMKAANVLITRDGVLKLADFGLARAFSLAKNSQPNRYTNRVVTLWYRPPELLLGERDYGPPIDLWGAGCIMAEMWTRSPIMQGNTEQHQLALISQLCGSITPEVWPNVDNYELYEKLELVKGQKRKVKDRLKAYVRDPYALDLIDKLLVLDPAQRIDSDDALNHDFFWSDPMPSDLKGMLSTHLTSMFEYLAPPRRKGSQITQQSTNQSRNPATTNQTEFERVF
T1 sequence (O60563 whole entry partner): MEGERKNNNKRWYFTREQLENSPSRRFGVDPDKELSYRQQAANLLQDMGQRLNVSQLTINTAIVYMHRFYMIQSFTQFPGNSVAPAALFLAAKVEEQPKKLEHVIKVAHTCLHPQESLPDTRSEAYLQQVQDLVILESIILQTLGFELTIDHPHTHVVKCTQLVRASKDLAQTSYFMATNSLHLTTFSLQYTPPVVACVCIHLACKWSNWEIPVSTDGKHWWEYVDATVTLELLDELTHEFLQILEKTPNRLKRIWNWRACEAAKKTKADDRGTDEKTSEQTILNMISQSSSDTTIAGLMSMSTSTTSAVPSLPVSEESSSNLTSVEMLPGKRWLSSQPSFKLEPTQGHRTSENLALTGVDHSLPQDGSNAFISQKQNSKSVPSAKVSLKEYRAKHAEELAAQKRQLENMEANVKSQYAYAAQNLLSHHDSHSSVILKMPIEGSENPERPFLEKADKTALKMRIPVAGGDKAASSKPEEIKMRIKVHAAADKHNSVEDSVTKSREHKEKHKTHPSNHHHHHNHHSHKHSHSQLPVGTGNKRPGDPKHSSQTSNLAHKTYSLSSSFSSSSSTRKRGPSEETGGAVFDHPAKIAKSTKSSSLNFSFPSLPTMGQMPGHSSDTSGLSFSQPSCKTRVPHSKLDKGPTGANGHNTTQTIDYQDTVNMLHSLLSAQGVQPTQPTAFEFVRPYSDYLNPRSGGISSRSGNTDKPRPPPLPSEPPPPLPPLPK

| SMILES | CDK9: Selectivity of CDK7 inhibition over CDK9 inhibition [fold] [1] | CDK2 IC50 range class [2] | IC50 [3, 4] | other results |
| --- | --- | --- | --- | --- |
| COc1cccc([C@H](C)Nc2nc(O[C@@H]3CCCNC3)nc3c(C(C)C)cnn23)c1OC [(VII-aX), N-((S)-1-(2,3-dimethoxy-phenyl)ethyl)-8-isopropyl-2-((R)-piperidin-3-yloxy)pyrazolo[1,5-a][1,3,5]triazin-4-amine] | +++ (IC50>2500 nM) | +++ (IC50>2500 nM) | < 10 nM |  |
| COc1cccc([C@H](C)Nc2nc(N3CCC4(CCCN4)CC3)nc3c(C(C)C)cnn23)c1 [(VIII-ai), (S)-8-isopropyl-N-(1-(3-methoxyphenyl)ethyl)-2-(1,8-diazaspiro[4.5]decan-8-yl)pyrazolo[1,5-a][1,3,5]triazin-4-amine] | +++ (IC50>2500 nM) | +++ (IC50>2500 nM) | < 10 nM |  |
| Cc1ccccc1[C@H](C)Nc1nc(O[C@@H]2CCCNC2)nc2c(C(C)C)cnn12 [(VII-af), 8-isopropyl-2-((R)-piperidin-3-yloxy)-N-((S)-1-(o-tolyl)ethyl)pyrazolo[1,5-a][1,3,5]triazin-4-amine] | +++ (IC50>2500 nM) | +++ (IC50>2500 nM) | 10 to 30 nM |  |
| CCOc1cccc([C@H](C)Nc2nc(O[C@@H]3CCCNC3)nc3c(C(C)C)cnn23)c1 [(VII-aV), N-((S)-1-(3-ethoxyphenyl)ethyl)-8-isopropyl-2-((R)-piperidin-3-yloxy)pyrazolo[1.5-a][1,3,5]triazin-4-amine] | +++ (IC50>2500 nM) | +++ (IC50>2500 nM) | > 100 nM |  |
| CC(C)c1cnn2c(N[C@@H](C)c3ccccc3)nc(O[C@@H]3CCCNC3)nc12 [(VII-j), 8-isopropyl-N-((S)-1-phenylethyl)-2-((R)-piperidin-3-yloxy)pyrazolo[1,5-a][1,3,5]triazin-4-amine] | +++ (IC50>2500 nM) | +++ (IC50>2500 nM) | < 10 nM | Selectivity CDK7 over CDK9 [fold] ([1]; Table 6, CDK9 activity as multiple of CDK7 activity): 598 fold; Selectivity CDK7 over CDK2 [fold] ([2]; Table 6, CDK2 activity as multiple of CDK7 activity): 733 fold; multiplicity of the CDK2 and CDK9 activity in terms of the CDK7 activity ([3]; CDK2 and CDK9 IC50 relative to CDK7 IC50, highest of the two ('up to')): > 733 fold; IC50 ([3]; Table 6, read-out: IC50 [nM] CDK7): < 10 nM; selectivity for CDK7 against CDK2 and CDK9 (in words) ([3]; comparison of the enzymatic activity assays for CDK2, CDK7 and CDK9): selectively inhibits only CDK7 |
| CC(C)c1cnn2c(N[C@H](C)c3cccc(Cl)c3)nc(OC3CCN(C)CC3)nc12 [(VII-ad), (R)-N-(1-(3-chlorophenyl)ethyl)-8-isopropyl-2-((1-methylpiperidin-4-yl)oxy)pyrazolo[1,5-a][1,3,5]triazin-4-amine] | +++ (IC50>2500 nM) |  | < 10 nM | Selectivity CDK7 over CDK9 [fold] ([1]; Table 7, lower part): 815 fold; IC50 ([1]; Table 7, upper part): > 2500 nM; Selectivity CDK7 over CDK2 [fold] ([2]; Table 7, lower part): 968 fold; IC50 ([2]; Table 7, upper part): > 2500 nM; IC50 ([3]; Table 7, lower part, read-out: IC50 [nM] CDK7): < 10 nM; IC50 ([3]; Table 7, upper part, read-out: IC50 [nM] CDK7): < 10 nM |
| COc1cccc([C@H](C)Nc2nc(N3CCC4(CCN4)CC3)nc3c(C(C)C)cnn23)c1 [(VIII-aj), (S)-8-isopropyl-N-(1-(3-methoxyphenyl)ethyl)-2-(1,7-diazaspiro[3.5]nonan-7-yl)pyrazolo[1,5-a][1,3,5]triazin-4-amine] | +++ (IC50>2500 nM) | +++ (IC50>2500 nM) | < 10 nM |  |
| COc1cccc([C@H](C)Nc2nc(OCCN(C)S(=O)(=O)C3CCNCC3)nc3c(C(C)C)cnn23)c1 [(VII-bw), (S)-N-(2-((8-isopropyl-4-((1-(3-methoxyphenyl)ethyl)amino)pyrazolo[1,5-a][1,3,5]triazin-2-yl)oxy)ethyl)-N-methylpiperidine-4-sulfonamide] | +++ (IC50>2500 nM) | +++ (IC50>2500 nM) | < 10 nM |  |

Second part, led by results:

| CDK9: Selectivity of CDK7 inhibition over CDK9 inhibition [fold] [1] | CDK2 IC50 range class [2] | IC50 [3, 4] | SMILES | other results |
| --- | --- | --- | --- | --- |
| +++ (IC50>2500 nM) | +++ (IC50>2500 nM) | > 100 nM | COc1cccc([C@H](C)Nc2nc(NCCN3CCOCC3)nc3c(C(C)C)cnn23)c1 [(VIII-m), (S)-8-isopropyl-N4-(1-(3-methoxyphenyl)ethyl)-N2-(2-morpholinoethyl)pyrazolo[1,5-a][1,3,5]triazine-2,4-diamine] |  |
| +++ (IC50>2500 nM) | +++ (IC50>2500 nM) | > 100 nM | COc1cccc([C@H](C)Nc2nc(N3CCCC(N)C3)nc3c(C(C)C)cnn23)c1 (stereo partly drawn) [(VIII-p), 2-(3-aminopiperidin-1-yl)-8-isopropyl-N-((S)-1-(3-methoxyphenyl)ethyl)pyrazolo[1,5-a][1,3,5]triazin-4-amine] |  |
| +++ (IC50>2500 nM) | +++ (IC50>2500 nM) | > 100 nM | COc1cccc([C@H](C)Nc2nc(N(C)CCN3CCOCC3)nc3c(C(C)C)cnn23)c1 [(VIII-s), (S)-8-isopropyl-N4-(1-(3-methoxyphenyl)ethyl)-N2-methyl-N2-(2-morpholinoethyl)pyrazolo[1,5-a][1,3,5]triazine-2,4-diamine] |  |
| +++ (IC50>2500 nM) | +++ (IC50>2500 nM) | > 100 nM | COc1cccc([C@H](C)Nc2nc(C(=O)N(C)CCN3CCOCC3)nc3c(C(C)C)cnn23)c1 [(XXVI-2), (S)-8-isopropyl-4-((1-(3-methoxyphenyl)ethyl)amino)-N-methyl-N-(2-morpholinoethyl)pyrazolo[1,5-a][1,3,5]triazine-2-carboxamide] |  |
| +++ (IC50>2500 nM) | +++ (IC50>2500 nM) | > 100 nM | COc1cccc([C@H](C)Nc2nc(NC(CN)c3ccccc3)nc3c(C(C)C)cnn23)c1 (stereo partly drawn) [(VIII-z), N2-(2-amino-1-phenylethyl)-8-isopropyl-N4-((S)-1-(3-methoxyphenyl)ethyl)pyrazolo[1,5-a][1,3,5]triazine-2,4-diamine] |  |
| +++ (IC50>2500 nM) | +++ (IC50>2500 nM) | > 100 nM | COc1cccc([C@H](C)Nc2nc(C(=O)NCCCN)nc3c(C(C)C)cnn23)c1 [(XXVI-5), (S)-N-(3-aminopropyl)-8-isopropyl-4-((1-(3-methoxyphenyl)ethyl)amino)pyrazolo[1,5-a][1,3,5]triazine-2-carboxamide] |  |
| +++ (IC50>2500 nM) | +++ (IC50>2500 nM) | 10 to 30 nM | COc1cccc([C@H](C)Nc2nc(N3CCCC34CCNCC4)nc3c(C(C)C)cnn23)c1 [(VIII-ak), (S)-8-isopropyl-N-(1-(3-methoxyphenyl)ethyl)-2-(1,8-diazaspiro[4.5]decan-1-yl)pyrazolo[1,5-a][1,3,5]triazin-4-amine] |  |
| +++ (IC50>2500 nM) | +++ (IC50>2500 nM) | > 100 nM | COc1cccc([C@H](C)Nc2nc(C(=O)N(C)CCN3CCCC3)nc3c(C(C)C)cnn23)c1 [(XXVI-3), (S)-8-isopropyl-4-((1-(3-methoxyphenyl)ethyl)amino)-N-methyl-N-(2-(pyrrolidin-1-yl)ethyl)pyrazolo[1,5-a][1,3,5]triazine-2-carboxamide] |  |
| +++ (IC50>2500 nM) | +++ (IC50>2500 nM) | > 100 nM | COc1cccc([C@H](C)Nc2nc(CN3CC(N4CCCC4=O)C3)nc3c(C(C)C)cnn23)c1 [(XXIX-10), (S)-1-(1-((8-isopropyl-4-((1-(3-methoxyphenyl)ethyl)amino)pyrazolo[1,5-a][1,3,5]triazin-2-yl)methyl)azetidin-3-yl)pyrrolidin-2-one] |  |
| +++ (IC50>2500 nM) | +++ (IC50>2500 nM) | > 100 nM | COc1cccc([C@H](C)Nc2nc(CNCCN3CCOCC3)nc3c(C(C)C)cnn23)c1 [(XXIX-7), (S)-8-isopropyl-N-(1-(3-methoxyphenyl)ethyl)-2-(((2-morpholinoethyl)amino)methyl)pyrazolo[1,5-a][1,3,5]triazin-4-amine] |  |

From patent US9096608B2, “Pharmaceutically active pyrazolo-triazine derivatives” (LEAD DISCOVERY CENTER GMBH, priority 2012, dated 2015)
